Data on 31 compounds can be found in US9073907B2, “Thiazoles derivatives and their use as positive allosteric modulators of metabotropic glutamate receptors” (Addex Pharma S.A., priority 2009, dated 2015).

Compound `Cc1cnc(Nc2nc(-c3cn[nH]c3)c(C)s2)nc1` [Compound 1-34, 5-Methyl-N-(5-methylpyrimidin-2-yl)-4-(1H-pyrazol-4-yl)thiazol-2-amine] yielded a melting point of more than 410 °C.

`c1cnc(Nc2nc(-c3cn[nH]c3)cs2)nc1` [Compound 1-59, 4-(1H-Pyrazol-4-yl)-N-(pyrimidin-2-yl)thiazol-2-amine] returned a melting point of 311 to 312 °C.

The compound `c1ccc(-c2n[nH]cc2-c2csc(Nc3ccccn3)n2)cc1` [Compound 1-37, 4-(3-Phenyl-1H-pyrazol-4-yl)-N-(pyridin-2-yl)thiazol-2-amine] yielded a melting point of 229 to 231 °C.

`Cc1ccnc(Nc2nc(-c3c[nH]nc3N3CCCCC3)cs2)n1` [Compound 1-57, N-(4-Methylpyrimidin-2-yl)-4-(3-(piperidin-1-yl)-1H-pyrazol-4-yl)thiazol-2-amine] returned a melting point of 256 °C.

As to `CC(=O)c1[nH]ncc1-c1csc(Nc2ncccn2)n1` [Compound 1-67, 1-(4-(2-(Pyrimidin-2-ylamino)thiazol-4-yl)-1H-pyrazol-5-yl)ethanone], the melting point is 287 °C.

In turn, `Cc1cccc(Nc2nc(-c3cnn(C(N)=O)c3)c(F)s2)n1` [Compound 1-30, 4-(5-Fluoro-2-(6-methylpyridin-2-ylamino)thiazol-4-yl)-1H-pyrazole-1-carboxamide] registered a melting point of 209 °C.

For the compound `Cc1sc(Nc2ccccn2)nc1-c1cnn(C(=O)c2ccccn2)c1` [Compound 1-63, (4-(5-Methyl-2-(pyridin-2-ylamino)thiazol-4-yl)-1H-pyrazol-1-yl)(pyridin-2-yl)methanone], the melting point fell in the range of 226 to 227 °C.

`Cc1sc(Nc2cccc(C(F)F)n2)nc1-c1cn[nH]c1` [Compound 1-44, N-(6-(Difluoromethyl)pyridin-2-yl)-5-methyl-4-(1H-pyrazol-4-yl)thiazol-2-amine] returned a melting point of 269 to 271 °C.

In the case of `COCc1n[nH]cc1-c1csc(Nc2ccccn2)n1` [Compound 1-40, 4-(3-(Methoxymethyl)-1H-pyrazol-4-yl)-N-(pyridin-2-yl)thiazol-2-amine], the melting point came out at 190 °C.

Compound `Cc1sc(Nc2cc(F)ccn2)nc1-c1cn[nH]c1` [Compound 1-19, N-(4-Fluoropyridin-2-yl)-5-methyl-4-(1H-pyrazol-4-yl)thiazol-2-amine] showed a melting point of 283 °C.

Consider `Fc1cnc(Nc2nc(-c3cn[nH]c3)cs2)nc1` [Compound 1-55, N-(5-Fluoropyrimidin-2-yl)-4-(1H-pyrazol-4-yl)thiazol-2-amine], for which the melting point was found to be 256 °C.

`CN(C)c1sc(Nc2ccccn2)nc1-c1cn[nH]c1` [Compound 1-12, N^5,N^5-Dimethyl-4-(1H-pyrazol-4-yl)-N^2-(pyridin-2-yl)thiazole-2,5-diamine] returned a melting point of 232 °C.

Compound `c1csc(Nc2nc(-c3cn[nH]c3)cs2)n1` [Compound 1-42, 4-(1H-Pyrazol-4-yl)-N-(thiazol-2-yl)thiazol-2-amine] had a melting point of 277 to 280 °C.

Compound `Fc1sc(Nc2cccc(Cl)n2)nc1-c1cn[nH]c1` [Compound 1-13, N-(6-Chloropyridin-2-yl)-5-fluoro-4-(1H-pyrazol-4-yl)thiazol-2-amine] showed a melting point of 239 °C.

On to `CCc1ccnc(Nc2nc(-c3cn[nH]c3)c(C)s2)n1` [Compound 1-46, N-(4-Ethylpyrimidin-2-yl)-5-methyl-4-(1H-pyrazol-4-yl)thiazol-2-amine], for which the melting point is 223 to 225 °C.

Turning to `Cc1ccc(F)c(Nc2nc(-c3cn[nH]c3)c(C)s2)n1` [Compound 1-23, N-(3-Fluoro-6-methylpyridin-2-yl)-5-methyl-4-(1H-pyrazol-4-yl)thiazol-2-amine], the melting point worked out at 323 °C.

For the compound `Clc1sc(Nc2ncccn2)nc1-c1cn[nH]c1` [Compound 1-45, 5-Chloro-4-(1H-pyrazol-4-yl)-N-(pyrimidin-2-yl)thiazol-2-amine], the melting point lay within 310 to 313 °C.

`CN1CCC(Nc2nc(-c3cn[nH]c3)cs2)C1=O` (stereo not shown) [Compound 1-50, 3-(4-(1H-Pyrazol-4-yl)thiazol-2-ylamino)-1-methylpyrrolidin-2-one] returned a melting point of 196 to 204 °C.

For `O=C(c1[nH]ncc1-c1csc(Nc2ncccn2)n1)C1CC1` [Compound 1-66, Cyclopropyl(4-(2-(pyrimidin-2-ylamino)thiazol-4-yl)-1H-pyrazol-5-yl)methanone], the melting point amounted to 244 °C.

Take `Cc1sc(Nc2cccc(CF)n2)nc1-c1cn[nH]c1` [Compound 1-43, N-(6-(Fluoromethyl)pyridin-2-yl)-5-methyl-4-(1H-pyrazol-4-yl)thiazol-2-amine]: the melting point was in the range of 270 to 280 °C.

Turning to `Cc1cccc(Nc2nc(-c3cn[nH]c3)c(F)s2)n1` [Compound 1-11, 5-Fluoro-N-(6-methylpyridin-2-yl)-4-(1H-pyrazol-4-yl)thiazol-2-amine], the melting point stood at 204 °C.

`c1ccc(Nc2nc(-c3cn[nH]c3)c(N3CCCCC3)s2)nc1` [Compound 1-4, 5-(Piperidin-1-yl)-4-(1H-pyrazol-4-yl)-N-(pyridin-2-yl)thiazol-2-amine] had a melting point of 238 °C.

In turn, `COc1ccc(Nc2nc(-c3cn[nH]c3)c(C)s2)nc1` [Compound 1-24, N-(5-M ethoxypyridin-2-yl)-5-methyl-4-(1H-pyrazol-4-yl)thiazol-2-amine] yielded a melting point of 229 °C.

In the case of `Fc1sc(Nc2cnccn2)nc1-c1cn[nH]c1` [Compound 1-25, 5-Fluoro-N-(pyrazin-2-yl)-4-(1H-pyrazol-4-yl)thiazol-2-amine], the melting point was 279 °C.

For the compound `Cc1sc(Nc2ccccn2)nc1-c1cnn(S(=O)(=O)c2ccc(Cl)cc2)c1` [Compound 1-9, 4-(1-(4-Chlorophenylsulfonyl)-1H-pyrazol-4-yl)-5-methyl-N-(pyridin-2-yl)thiazol-2-amine], the melting point lay within 232 to 233 °C.

Turning to `c1ccc(Nc2nc(-c3cn[nH]c3)c(N3CCOCC3)s2)nc1` [Compound 1-2, 5-Morpholino-4-(1H-pyrazol-4-yl)-N-(pyridin-2-yl)thiazol-2-amine], the melting point lay in the range of 230 to 231 °C.

For the compound `Cc1ccnc(Nc2nc(-c3c[nH]nc3N3CCOCC3)cs2)n1` [Compound 1-60, N-(4-Methylpyrimidin-2-yl)-4-(3-morpholino-1H-pyrazol-4-yl)thiazol-2-amine], the melting point came out at 260 °C.

`CC(=O)c1[nH]ncc1-c1csc(Nc2nccc(C)n2)n1` [Compound 1-54, 1-(4-(2-(4-Methylpyrimidin-2-ylamino)thiazol-4-yl)-1H-pyrazol-5-yl)ethanone]: the melting point lay within 305 to 310 °C.

`Cc1ccnc(Nc2nc(-c3cn[nH]c3)c(C)s2)n1` [Compound 1-33, 5-Methyl-N-(4-methylpyrimidin-2-yl)-4-(1H-pyrazol-4-yl)thiazol-2-amine] returned a melting point of 255 °C.

Compound `Cc1nc(Nc2nc(-c3cn[nH]c3)cs2)cs1` [Compound 1-41, N-(2-Methylthiazol-4-yl)-4-(1H-pyrazol-4-yl)thiazol-2-amine] came in with a melting point of 236 to 239 °C.

On to `Cc1sc(Nc2nccc(C(C)C)n2)nc1-c1cn[nH]c1` [Compound 1-52, N-(4-Isopropylpyrimidin-2-yl)-5-methyl-4-(1H-pyrazol-4-yl)thiazol-2-amine], for which the melting point lay within 249 to 252 °C.
